Values of other authors in patent publication EP4623708A1, “SWEETENER COMPOSITION FOR POUCHED ORAL PRODUCTS” (Nicoventures Trading Limited, priority 2024, dated 2025).

Assays:
[1] = relative to sugar

solubility in water	Compound	times sweeter than sugar [1]
water-soluble	CC(/C=C/C=C(C)/C=C/C(=O)O)=C\C=C\C=C(C)\C=C\C=C(C)\C=C\C(=O)O (stereo in doubt) [norbixin, (2E,4E,6E,8E,10E,12E,14E,16E,18E)-4,8,13,17-tetramethylicosa-2,4,6,8,10,12,14,16,18-nonaenedioic acid]	–
–	OC[C@H]1O[C@H](O[C@]2(CCl)O[C@H](CCl)[C@@H](O)[C@@H]2O)[C@H](O)[C@@H](O)[C@H]1Cl [Sucralose, trichlorogalatosucrose]	about 600 times
insoluble in water	COC(=O)/C=C/C(C)=C\C=C\C(C)=C\C=C\C=C(C)\C=C\C=C(C)\C=C\C(=O)O [bixin, (2E,4E,6E,8E,10E,12E,14E,16Z,18E)-20-methoxy-4,8,13,17-tetramethyl-20-oxoicosa-2,4,6,8,10,12,14,16,18-nonaenoic acid]	–
